Test results as given in US11173151B2, “Substituted triazole derivatives and uses thereof” (BAYER AKTIENGESELLSCHAFT, priority 2017, dated 2021).

Key:
human V2 receptor = target: T1, human V2 receptor (Homo sapiens, UniProt P30518); experiment: Cellular in vitro assay for determining vasopressin receptor activity, V2 receptor cell line (CHO, CRE-luciferase); type: cell-based; settings: CHO cell line transfected with human V2 receptor; [Arg8]-vasopressin at EC50 concentration, 3 hours; read-out: IC50 hV2
T1 construct: expressed in transfected cells; host or cells: CHO K1 (ATCC) expressing firefly luciferase under a CRE-responsive promoter

human V1a receptor = target: T2, human V1a receptor (Homo sapiens, UniProt P37288); experiment: Cellular in vitro assay for determining vasopressin receptor activity, V1a receptor cell line (CHO, aequorin luminescence); type: cell-based; settings: for IC50: CHO cell line transfected with human V1a receptor, [Arg]-vasopressin at EC50 concentration, read-out: IC50 hV1a; for ratio IC50 hV2/hV1a: selectivity ratio IC50 hV2 / IC50 hV1a
T2 construct: expressed in transfected cells; host or cells: CHO K1 (ATCC), also stably transfected with a modified aequorin
How it was run: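 Antagonism is measured in stable CHO K1 transfectants coexpressing the Gαq-coupled receptor and a calcium-sensitive aequorin photoprotein. Agonist challenge uses [Arg]-vasopressin at EC50 after a 10-minute compound exposure; IC50 values come from the luminescence signal.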

T2 sequence (P37288 whole entry): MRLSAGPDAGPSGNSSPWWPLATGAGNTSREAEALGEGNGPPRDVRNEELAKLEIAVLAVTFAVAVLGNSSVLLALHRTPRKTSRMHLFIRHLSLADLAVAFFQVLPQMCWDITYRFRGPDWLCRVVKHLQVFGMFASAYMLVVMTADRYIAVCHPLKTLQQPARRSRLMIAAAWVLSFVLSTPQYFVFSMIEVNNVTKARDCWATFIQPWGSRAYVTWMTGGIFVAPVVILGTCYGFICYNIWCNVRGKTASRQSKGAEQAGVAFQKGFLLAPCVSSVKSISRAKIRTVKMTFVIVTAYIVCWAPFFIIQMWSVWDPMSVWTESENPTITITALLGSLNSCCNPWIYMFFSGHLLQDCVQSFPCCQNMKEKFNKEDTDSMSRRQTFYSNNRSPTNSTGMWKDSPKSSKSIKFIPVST
T1 sequence (P30518 whole entry): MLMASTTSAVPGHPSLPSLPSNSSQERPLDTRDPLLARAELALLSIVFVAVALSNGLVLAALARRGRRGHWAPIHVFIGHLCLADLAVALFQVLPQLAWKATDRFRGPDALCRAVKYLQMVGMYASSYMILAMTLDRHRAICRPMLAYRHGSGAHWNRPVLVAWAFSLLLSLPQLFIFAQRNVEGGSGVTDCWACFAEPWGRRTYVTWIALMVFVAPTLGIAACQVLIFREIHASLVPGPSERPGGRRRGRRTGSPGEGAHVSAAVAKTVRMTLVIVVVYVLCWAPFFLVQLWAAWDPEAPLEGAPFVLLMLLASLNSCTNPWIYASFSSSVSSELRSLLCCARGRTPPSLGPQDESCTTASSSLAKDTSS

Row | IC50 (human V2 receptor) | IC50 (human V1a receptor) | ratio IC50 hV2/hV1a (human V1a receptor) | Structure (SMILES)
1 | 116 nM | 1.9 nM | 61.3 | Cc1ccc(NC(=O)c2ccccc2-n2cnc(Cn3nc(-c4ccc(Cl)cc4)n(C[C@H](O)C(F)(F)F)c3=O)n2)c(F)c1 [Example 309, 2-[3-({3-(4-Chlorophenyl)-5-oxo-4-[(2S)-3,3,3-trifluoro-2-hydroxypropyl]-4,5-dihydro-1H-1,2,4-triazol-1-yl}methyl)-1H-1,2,4-triazol-1-yl]-N-(2-fluoro-4-methylphenyl)benzamide]
2 | 215 nM | 2.6 nM | 82.7 | O=C(Nc1ccc(F)cc1)c1ccccc1-n1cnc(Cn2nc(-c3ccc(Cl)cc3)n(C[C@H](O)C(F)(F)F)c2=O)n1 [Example 310, 2-[3-({3-(4-Chlorophenyl)-5-oxo-4-[(2S)-3,3,3-trifluoro-2-hydroxypropyl]-4,5-dihydro-1H-1,2,4-triazol-1-yl}methyl)-1H-1,2,4-triazol-1-yl]-N-(4-fluorophenyl)benzamide]
3 | 1250 nM | 1.85 nM | 675.7 | O=C(c1ccccc1-n1cnc(Cn2nc(-c3ccc(Cl)cc3)n(C[C@H](O)C(F)(F)F)c2=O)n1)N1CCSCC1 [Example 311, 5-(4-Chlorophenyl)-2-({1-[2-(thiomorpholin-4-ylcarbonyl)phenyl]-1H-1,2,4-triazol-3-yl}methyl)-4-[(2S)-3,3,3-trifluoro-2-hydroxypropyl]-2,4-dihydro-3H-1,2,4-triazol-3-one]
4 | 135 nM | 6.85 nM | 19.7 | Nc1cccc(NC(=O)c2ccccc2-n2cnc(Cn3nc(-c4ccc(Cl)cc4)n(C[C@H](O)C(F)(F)F)c3=O)n2)n1 [Example 312, N-(6-Aminopyridin-2-yl)-2-[3-({3-(4-chlorophenyl)-5-oxo-4-[(2S)-3,3,3-trifluoro-2-hydroxypropyl]-4,5-dihydro-1H-1,2,4-triazol-1-yl}methyl)-1H-1,2,4-triazol-1-yl]benzamide]
5 | 915 nM | 4.15 nM | 220.5 | Cc1ccncc1NC(=O)c1ccccc1-n1cnc(Cn2nc(-c3ccc(Cl)cc3)n(C[C@H](O)C(F)(F)F)c2=O)n1 [Example 313, 2-[3-({3-(4-Chlorophenyl)-5-oxo-4-[(2S)-3,3,3-trifluoro-2-hydroxypropyl]-4,5-dihydro-1H-1,2,4-triazol-1-yl}methyl)-1H-1,2,4-triazol-1-yl]-N-(4-methylpyridin-3-yl)benzamide]
6 | 510 nM | 2.15 nM | 237.2 | CCN(CC)C(=O)c1ccccc1-n1cnc(Cn2nc(-c3ccc(Cl)cc3)n(C[C@H](O)C(F)(F)F)c2=O)n1 [Example 314, 2-[3-({3-(4-Chlorophenyl)-5-oxo-4-[(2S)-3,3,3-trifluoro-2-hydroxypropyl]-4,5-dihydro-1H-1,2,4-triazol-1-yl}methyl)-1H-1,2,4-triazol-1-yl]-N,N-diethylbenzamide]
7 | 155 nM | 4.15 nM | 37.3 | O=C(NCc1ccco1)c1ccccc1-n1cnc(Cn2nc(-c3ccc(Cl)cc3)n(C[C@H](O)C(F)(F)F)c2=O)n1 [Example 315, 2-[3-({3-(4-Chlorophenyl)-5-oxo-4-[(2S)-3,3,3-trifluoro-2-hydroxypropyl]-4,5-dihydro-1H-1,2,4-triazol-1-yl}methyl)-1H-1,2,4-triazol-1-yl]-N-(furan-2-ylmethyl)benzamide]
8 | 255 nM | 1.75 nM | 145.7 | O=C(NC1CCC1)c1ccccc1-n1cnc(Cn2nc(-c3ccc(Cl)cc3)n(C[C@H](O)C(F)(F)F)c2=O)n1 [Example 316, 2-[3-({3-(4-Chlorophenyl)-5-oxo-4-[(2S)-3,3,3-trifluoro-2-hydroxypropyl]-4,5-dihydro-1H-1,2,4-triazol-1-yl}methyl)-1H-1,2,4-triazol-1-yl]-N-cyclobutylbenzamide]
9 | 285 nM | 2.3 nM | 123.9 | O=C(Nc1c(F)cc(F)cc1F)c1ccccc1-n1cnc(Cn2nc(-c3ccc(Cl)cc3)n(C[C@H](O)C(F)(F)F)c2=O)n1 [Example 317, 2-[3-({3-(4-Chlorophenyl)-5-oxo-4-[(2S)-3,3,3-trifluoro-2-hydroxypropyl]-4,5-dihydro-1H-1,2,4-triazol-1-yl}methyl)-1H-1,2,4-triazol-1-yl]-N-(2,4,6-trifluorophenyl)benzamide]
10 | 920 nM | 14.5 nM | 63.4 | O=C(NCC1CCCCC1)c1ccccc1-n1cnc(Cn2nc(-c3ccc(Cl)cc3)n(C[C@H](O)C(F)(F)F)c2=O)n1 [Example 318, 2-[3-({3-(4-Chlorophenyl)-5-oxo-4-[(2S)-3,3,3-trifluoro-2-hydroxypropyl]-4,5-dihydro-1H-1,2,4-triazol-1-yl}methyl)-1H-1,2,4-triazol-1-yl]-N-(cyclohexylmethyl)benzamide]
11 | 102 nM | 1.35 nM | 75.9 | CCCNC(=O)c1ccccc1-n1cnc(Cn2nc(-c3ccc(Cl)cc3)n(C[C@H](O)C(F)(F)F)c2=O)n1 [Example 320, 2-[3-({3-(4-Chlorophenyl)-5-oxo-4-[(2S)-3,3,3-trifluoro-2-hydroxypropyl]-4,5-dihydro-1H-1,2,4-triazol-1-yl}methyl)-1H-1,2,4-triazol-1-yl]-N-propylbenzamide]
12 | 570 nM | 13 nM | 43.8 | CC1CCC(NC(=O)c2ccccc2-n2cnc(Cn3nc(-c4ccc(Cl)cc4)n(C[C@H](O)C(F)(F)F)c3=O)n2)CC1 (stereo partly drawn) [Example 321, 2-[3-({3-(4-Chlorophenyl)-5-oxo-4-[(2S)-3,3,3-trifluoro-2-hydroxypropyl]-4,5-dihydro-1H-1,2,4-triazol-1-yl}methyl)-1H-1,2,4-triazol-1-yl]-N-(4-methylcyclohexyl)benzamide]
13 | 275 nM | 2.65 nM | 103.8 | CC(C)(C)CNC(=O)c1ccccc1-n1cnc(Cn2nc(-c3ccc(Cl)cc3)n(C[C@H](O)C(F)(F)F)c2=O)n1 [Example 322, 2-[3-({3-(4-Chlorophenyl)-5-oxo-4-[(2S)-3,3,3-trifluoro-2-hydroxypropyl]-4,5-dihydro-1H-1,2,4-triazol-1-yl}methyl)-1H-1,2,4-triazol-1-yl]-N-(2,2-dimethylpropyl)benzamide]
14 | 70.5 nM | 2.05 nM | 34.4 | Cc1ccccc1NC(=O)c1ccccc1-n1cnc(Cn2nc(-c3ccc(Cl)cc3)n(C[C@H](O)C(F)(F)F)c2=O)n1 [Example 323, 2-[3-({3-(4-Chlorophenyl)-5-oxo-4-[(2S)-3,3,3-trifluoro-2-hydroxypropyl]-4,5-dihydro-1H-1,2,4-triazol-1-yl}methyl)-1H-1,2,4-triazol-1-yl]-N-(2-methylphenyl)benzamide]
15 | 1650 nM | 14 nM | 117.9 | CC(C)N(C(=O)c1ccccc1-n1cnc(Cn2nc(-c3ccc(Cl)cc3)n(C[C@H](O)C(F)(F)F)c2=O)n1)C(C)C [Example 324, 2-[3-({3-(4-Chlorophenyl)-5-oxo-4-[(2S)-3,3,3-trifluoro-2-hydroxypropyl]-4,5-dihydro-1H-1,2,4-triazol-1-yl}methyl)-1H-1,2,4-triazol-1-yl]-N,N-di(propan-2-yl)benzamide]
16 | 120 nM | 1.01 nM | 118.8 | O=C(NCC1CC1)c1ccccc1-n1cnc(Cn2nc(-c3ccc(Cl)cc3)n(C[C@H](O)C(F)(F)F)c2=O)n1 [Example 325, 2-[3-({3-(4-Chlorophenyl)-5-oxo-4-[(2S)-3,3,3-trifluoro-2-hydroxypropyl]-4,5-dihydro-1H-1,2,4-triazol-1-yl}methyl)-1H-1,2,4-triazol-1-yl]-N-(cyclopropylmethyl)benzamide]
17 | 495 nM | 4.4 nM | 112.5 | CC1(C)CCCN(C(=O)c2ccccc2-n2cnc(Cn3nc(-c4ccc(Cl)cc4)n(C[C@H](O)C(F)(F)F)c3=O)n2)C1 [Example 327, 5-(4-Chlorophenyl)-2-[(1-{2-[(3,3-dimethylpiperidin-1-yl)carbonyl]phenyl}-1H-1,2,4-triazol-3-yl)methyl]-4-[(2S)-3,3,3-trifluoro-2-hydroxypropyl]-2,4-dihydro-3H-1,2,4-triazol-3-one]
18 | 1900 nM | 11.1 nM | 171.9 | CN(C(=O)c1ccccc1-n1cnc(Cn2nc(-c3ccc(Cl)cc3)n(C[C@H](O)C(F)(F)F)c2=O)n1)C1CCCCC1 [Example 329, 2-[3-({3-(4-Chlorophenyl)-5-oxo-4-[(2S)-3,3,3-trifluoro-2-hydroxypropyl]-4,5-dihydro-1H-1,2,4-triazol-1-yl}methyl)-1H-1,2,4-triazol-1-yl]-N-cyclohexyl-N-methylbenzamide]
19 | 1350 nM | 9.95 nM | 135.7 | CN(Cc1ccco1)C(=O)c1ccccc1-n1cnc(Cn2nc(-c3ccc(Cl)cc3)n(C[C@H](O)C(F)(F)F)c2=O)n1 [Example 330, 2-[3-({3-(4-Chlorophenyl)-5-oxo-4-[(2S)-3,3,3-trifluoro-2-hydroxypropyl]-4,5-dihydro-1H-1,2,4-triazol-1-yl}methyl)-1H-1,2,4-triazol-1-yl]-N-(furan-2-ylmethyl)-N-methylbenzamide]
20 | 7700 nM | 33 nM | 233.3 | CN1CCCN(C(=O)c2ccccc2-n2cnc(Cn3nc(-c4ccc(Cl)cc4)n(C[C@H](O)C(F)(F)F)c3=O)n2)CC1 [Example 331, 5-(4-Chlorophenyl)-2-[(1-{2-[(4-methyl-1,4-diazepan-1-yl)carbonyl]phenyl}-1H-1,2,4-triazol-3-yl)methyl]-4-[(2S)-3,3,3-trifluoro-2-hydroxypropyl]-2,4-dihydro-3H-1,2,4-triazol-3-one]
